Source: patent US7384629B2, “Biological control of nematodes with Hirsutella minnesotensis” (Regents of the University of Minnesota, priority 2000, dated 2008)

System: Hirsutella rhossiliensis
Assay: Effect of carbon source on growth, sporulation and spore germination
Conditions: for Growth mm-in-diam, on agar: carbon source 4 g/liter carbon; for Growth mm-in-diam, on agar / Sporulation 10^3/cm^2, on agar / growth in liquid culture (visual rating): 5 weeks; for Sporulation 10^3/cm^2, on agar / Spore germination %, on agar / growth in liquid culture (visual rating): carbon source; for Spore germination %, on agar: after incubation for 24 hr

Compound | Growth mm-in-diam, on agar (isolate ATCC46487) [mm-in-diam] | Growth mm-in-diam, on agar (isolate JA16-1) [mm-in-diam] | Growth mm-in-diam, on agar (isolate OWVT-1) [mm-in-diam] | Sporulation 10^3/cm^2, on agar (isolate ATCC46487) | Spore germination %, on agar (isolate ATCC46487) [%] | Sporulation 10^3/cm^2, on agar (isolate JA16-1) | Spore germination %, on agar (isolate JA16-1) [%] | Sporulation 10^3/cm^2, on agar (isolate OWVT-1) | Spore germination %, on agar (isolate OWVT-1) [%] | growth in liquid culture (visual rating) (isolate ATCC46487) | growth in liquid culture (visual rating) (isolate OWVT-1) | growth in liquid culture (visual rating) (isolate JA16-1)
O=C(O)CC(O)(CC(=O)O)C(=O)O [Citric acid] | 11.3 | 0.0 | 9.0 | 39.5 10^3/cm^2 | 50.0 | 7.4 10^3/cm^2 | 38.9 | 87.5 10^3/cm^2 | 52.2 |  |  | 
OC[C@H]1O[C@H](O[C@H]2O[C@H](CO)[C@@H](O)[C@H](O)[C@H]2O)[C@H](O)[C@@H](O)[C@@H]1O [D(+) trehalose] | 36.5 | 18.3 | 30.2 | 172.6 10^3/cm^2 | 60.0 | 5.2 10^3/cm^2 | 68.9 | 49.2 10^3/cm^2 | 62.2 |  |  | 
O=C[C@H](O)[C@@H](O)[C@@H](O)[C@H](O)CO [D(+)galactose] | 25.0 | 0.0 | 7.0 | 2.8 10^3/cm^2 | 62.2 | 7.4 10^3/cm^2 | 43.3 | 7.7 10^3/cm^2 | 43.3 | I |  | 
O=C[C@H](O)[C@@H](O)[C@H](O)CO [D(+)xylose] | 0.0 | 0.0 | 0.0 | 0.0 10^3/cm^2 | 21.1 | 2.5 10^3/cm^2 | 24.4 | 0.0 10^3/cm^2 | 26.7 |  |  | 
O=C[C@H](O)[C@H](O)[C@H](O)CO [D(−) ribose] | 15.5 | 0.0 | 8.0 | 61.3 10^3/cm^2 | 48.9 | 0.0 10^3/cm^2 | 15.5 | 1.4 10^3/cm^2 | 45.6 |  |  | 
O=C(CO)[C@@H](O)[C@H](O)[C@H](O)CO [D(−)fructose] | 16.2 | 0.0 | 8.5 | 50.2 10^3/cm^2 | 45.6 | 0.0 10^3/cm^2 | 34.4 | 36.8 10^3/cm^2 | 50.0 | I | I | 
OC[C@H]1O[C@@H](O[C@H]2[C@H](O)[C@@H](O)[C@H](O)O[C@@H]2CO)[C@H](O)[C@@H](O)[C@@H]1O [D-(+)-cellubiose] | 33.0 | 10.0 |  | 13.8 10^3/cm^2 | 58.9 | 88.8 10^3/cm^2 | 52.2 | 23.9 10^3/cm^2 | 52.2 | I | I | I
O=C[C@H](O)[C@@H](O)[C@H](O)[C@H](O)CO [D-(+)-glucose] | 28.3 | 6.5 | 8.0 | 7.7 10^3/cm^2 | 61.1 | 28.1 10^3/cm^2 | 65.5 | 30.7 10^3/cm^2 | 56.7 | I | I | 
O=C[C@@H](O)[C@H](O)[C@H](O)CO [D-(−)-arabinose] | 18.0 | 0.0 | 9.7 | 22.3 10^3/cm^2 | 48.9 | 27.0 10^3/cm^2 | 32.2 | 35.2 10^3/cm^2 | 40.0 |  |  | 
OC[C@@H](O)[C@@H](O)[C@H](O)[C@H](O)CO [D-mannitol] | 29.5 | 18.0 | 23.2 | 15.9 10^3/cm^2 | 58.9 | 17.3 10^3/cm^2 | 61.1 | 40.6 10^3/cm^2 | 60.0 | III (III = hyphae growth or colonies form a pellet, less than 2.5 ml) |  | I
OC[C@@H](O)[C@@H](O)[C@H](O)[C@@H](O)CO [D-sorbitol] | 30.3 | 18.3 | 11.7 | 64.7 10^3/cm^2 | 57.8 | 4.2 10^3/cm^2 | 67.8 | 126.0 10^3/cm^2 | 56.7 | III (III = hyphae growth or colonies form a pellet, less than 2.5 ml) |  | I
O=C(CO)[C@@H](O)[C@H](O)[C@@H](O)CO [L-(−)-sorbose] | 7.8 | 0.0 | 6.7 | 62.5 10^3/cm^2 | 35.6 | 0.0 10^3/cm^2 | 13.3 | 7.4 10^3/cm^2 | 26.7 | I | I | 
OC[C@H]1O[C@H](O[C@H]2[C@H](O)[C@@H](O)[C@H](O)O[C@@H]2CO)[C@H](O)[C@@H](O)[C@@H]1O [Maltose monohydrate] | 34.3 | 11.0 | 13.7 | 21.9 10^3/cm^2 | 36.7 | 26.6 10^3/cm^2 | 64.5 | 34.2 10^3/cm^2 | 46.7 | I | I | I
OC[C@H]1O[C@H](OCC2O[C@@H](O)[C@H](O)[C@@H](O)[C@@H]2O)[C@H](O)[C@@H](O)[C@H]1O (stereo partly drawn) [Melibiose] | 35.0 | 11.8 | 18.2 | 41.9 10^3/cm^2 | 40.0 | 13.1 10^3/cm^2 | 61.7 | 33.7 10^3/cm^2 | 48.9 | III (III = hyphae growth or colonies form a pellet, less than 2.5 ml) |  | I
